# Tested on: MV-4-11 cells
# Experiment: Gene expression microarray analysis (Affymetrix PrimeView) and GSEA
# Assay type: cell-based, human
# Design: RFU PODN (11730768_x_at) / Fold change /veh PODN (11730768_x_at) / RFU LINC00158 (11744669_a_at) / Fold change /veh LINC00158 (11744669_a_at) / RFU DUSP10 (11751237_a_at) / Fold change /veh DUSP10 (11751237_a_at) / RFU ID3 (11757404_x_at) / Fold change /veh ID3 (11757404_x_at) / RFU PLEKHG5 (11737974_s_at) / Fold change /veh PLEKHG5 (11737974_s_at) / RFU LRRC4B (11730491_at) / Fold change /veh LRRC4B (11730491_at) / RFU GIMAP4 (11747438_a_at) / Fold change /veh GIMAP4 (11747438_a_at) / RFU KRT8 (11758183_x_at) / Fold change /veh KRT8 (11758183_x_at) / RFU CNN1 (11734310_a_at) / Fold change /veh CNN1 (11734310_a_at) / RFU VPS37D (11726825_at) / Fold change /veh VPS37D (11726825_at) / RFU C10orf10 (11716522_x_at) / Fold change /veh C10orf10 (11716522_x_at) / RFU KIR2DL2 /// KIR2DL4 /// KIR2DL5A /// KIR2DL5B /// KIR2DS1 /// KIR2DS2 /// KIR2DS3 /// KIR2DS4 /// KIR3DL3 /// KIR3DL3 /// KIR3DS1 (11738374_at) / Fold change /veh KIR2DL2 /// KIR2DL4 /// KIR2DL5A /// KIR2DL5B /// KIR2DS1 /// KIR2DS2 /// KIR2DS3 /// KIR2DS4 /// KIR3DL3 /// KIR3DL3 /// KIR3DS1 (11738374_at) / RFU C1QL1 (11718748_at) / Fold change /veh C1QL1 (11718748_at) / RFU TMPRSS4 (11747572_a_at) / Fold change /veh TMPRSS4 (11747572_a_at) / RFU HAMP (11756126_x_at) / Fold change /veh HAMP (11756126_x_at) / RFU RNFT2 (11725882_a_at) / Fold change /veh RNFT2 (11725882_a_at) / RFU NR4A2 (11747474_a_at) / Fold change /veh NR4A2 (11747474_a_at) / RFU ABCC12 (11746883_a_at) / Fold change /veh ABCC12 (11746883_a_at) / RFU TMEM136 (11760407_x_at) / Fold change /veh TMEM136 (11760407_x_at) / RFU CLDN22 /// WWC2 (11732394_at) / Fold change /veh CLDN22 /// WWC2 (11732394_at) / RFU HLA-DPB1 (11760878_x_at) / Fold change /veh HLA-DPB1 (11760878_x_at) / RFU SPINT1 (11716480_a_at) / Fold change /veh SPINT1 (11716480_a_at) / RFU GAP43 (11754022_s_at) / Fold change /veh GAP43 (11754022_s_at) / RFU A4GNT (11735810_at) / Fold change /veh A4GNT (11735810_at) / RFU PRB3 (11715151_x_at) / Fold change /veh PRB3 (11715151_x_at) / RFU TUBB4B (11761932_at) / Fold change /veh TUBB4B (11761932_at) / RFU CAPN14 (11732068_a_at) / Fold change /veh CAPN14 (11732068_a_at) / RFU TMCC2 (11721928_a_at) / Fold change /veh TMCC2 (11721928_a_at) / RFU IRGQ (11745062_a_at) / Fold change /veh IRGQ (11745062_a_at) / RFU FAM174B (11720279_a_at) / Fold change /veh FAM174B (11720279_a_at) / RFU TMPRSS4 (11748680_a_at) / Fold change /veh TMPRSS4 (11748680_a_at) / RFU FAM212B (11763350_a_at) / Fold change /veh FAM212B (11763350_a_at) / RFU PLEKHG5 (11743358_a_at) / Fold change /veh PLEKHG5 (11743358_a_at) / RFU ZSCAN30 (11745921_a_at) / Fold change /veh ZSCAN30 (11745921_a_at) / RFU CMKLR1 (11741424_a_at) / Fold change /veh CMKLR1 (11741424_a_at) / RFU LOC101060620 /// MAPK8IP1 (11723275_at) / Fold change /veh LOC101060620 /// MAPK8IP1 (11723275_at) / RFU SPTSSB (11747773_x_at) / Fold change /veh SPTSSB (11747773_x_at) / RFU PRSS12 (11739890_at) / Fold change /veh PRSS12 (11739890_at) / RFU BIN1 (11741810_x_at) / Fold change /veh BIN1 (11741810_x_at) / RFU WNT11 (11732464_a_at) / Fold change /veh WNT11 (11732464_a_at) / RFU C10orf10 (11716521_a_at) / Fold change /veh C10orf10 (11716521_a_at) / RFU C5orf56 (11738089_at) / Fold change /veh C5orf56 (11738089_at) / RFU CYB561 (11721691_x_at) / Fold change /veh CYB561 (11721691_x_at) / RFU ANKRD19P (11752326_a_at) / Fold change /veh ANKRD19P (11752326_a_at) / RFU OR2T12 /// OR2T33 /// OR2T8 (11738714_s_at) / Fold change /veh OR2T12 /// OR2T33 /// OR2T8 (11738714_s_at) / RFU VCAN (11748164_a_at) / Fold change /veh VCAN (11748164_a_at) / RFU JSRP1 (11732532_at) / Fold change /veh JSRP1 (11732532_at) / RFU KRTAP10-11 (11738290_x_at) / Fold change /veh KRTAP10-11 (11738290_x_at) / RFU MYO3A (11730013_a_at) / Fold change /veh MYO3A (11730013_a_at) / RFU EBF3 (11725865_a_at) / Fold change /veh EBF3 (11725865_a_at) / RFU CAMK2N1 (11719241_x_at) / Fold change /veh CAMK2N1 (11719241_x_at) / RFU C5orf56 (11738088_a_at) / Fold change /veh C5orf56 (11738088_a_at) / RFU OLFML3 (11715873_a_at) / Fold change /veh OLFML3 (11715873_a_at) / RFU LOC100653217 /// NTM (11731650_a_at) / Fold change /veh LOC100653217 /// NTM (11731650_a_at) / RFU MAPK11 (11762145_a_at) / Fold change /veh MAPK11 (11762145_a_at) / RFU FIZ1 (11724087_x_at) / Fold change /veh FIZ1 (11724087_x_at) / RFU OASL (11726364_x_at) / Fold change /veh OASL (11726364_x_at) / RFU SOX15 (11748057_x_at) / Fold change /veh SOX15 (11748057_x_at) / RFU CD79A (11719716_a_at) / Fold change /veh CD79A (11719716_a_at) / RFU HIST1H1D (11736915_at) / Fold change /veh HIST1H1D (11736915_at) / RFU CASKIN2 (11723855_a_at) / Fold change /veh CASKIN2 (11723855_a_at) / RFU LOC730098 (11760151_x_at) / Fold change /veh LOC730098 (11760151_x_at) / RFU OR4N2 (11742367_at) / Fold change /veh OR4N2 (11742367_at) / RFU PRRT2 (11749266_a_at) / Fold change /veh PRRT2 (11749266_a_at) / RFU SNX32 (11753110_a_at) / Fold change /veh SNX32 (11753110_a_at) / RFU CDHR5 (11726645_a_at) / Fold change /veh CDHR5 (11726645_a_at) / RFU RCAN1 (11760418_a_at) / Fold change /veh RCAN1 (11760418_a_at) / RFU FAM167A (11723789_a_at) / Fold change /veh FAM167A (11723789_a_at) / RFU FAM26E (11764081_at) / Fold change /veh FAM26E (11764081_at) / RFU ISYNA1 (11749810_s_at) / Fold change /veh ISYNA1 (11749810_s_at) / RFU ACY1 (11761880_at) / Fold change /veh ACY1 (11761880_at) / RFU 11764098_at / Fold change /veh 11764098_at / RFU SAMD14 (11745864_x_at) / Fold change /veh SAMD14 (11745864_x_at) / RFU NPB (11741838_a_at) / Fold change /veh NPB (11741838_a_at) / RFU TMPRSS6 (11731388_a_at) / Fold change /veh TMPRSS6 (11731388_a_at) / RFU KRTAP10-2 (11738614_at) / Fold change /veh KRTAP10-2 (11738614_at) / RFU ARHGAP8 /// PRR5-ARHGAP8 (11727945_x_at) / Fold change /veh ARHGAP8 /// PRR5-ARHGAP8 (11727945_x_at) / RFU KRTAP5-7 /// NADSYN1 (11734609_at) / Fold change /veh KRTAP5-7 /// NADSYN1 (11734609_at) / RFU RASL12 (11751679_a_at) / Fold change /veh RASL12 (11751679_a_at) / RFU CDKN2B (11736163_a_at) / Fold change /veh CDKN2B (11736163_a_at) / RFU PRF1 (11729649_at) / Fold change /veh PRF1 (11729649_at) / RFU, ZNF638 /// ZNF638-IT1 / Fold change vs veh, ZNF638 /// ZNF638-IT1 / RFU, PANK3 / Fold change vs veh, PANK3 / RFU, SH3YL1 / Fold change vs veh, SH3YL1 / RFU, ZEB2 / Fold change vs veh, ZEB2 / RFU, NRIP1 / Fold change vs veh, NRIP1 / RFU, PTTG1IP / Fold change vs veh, PTTG1IP / RFU, CAPN2 / Fold change vs veh, CAPN2 / RFU, MED14 / Fold change vs veh, MED14 / RFU, SNORA58 / Fold change vs veh, SNORA58 / RFU, C1orf63 / Fold change vs veh, C1orf63 / RFU, LRRFIP1 / Fold change vs veh, LRRFIP1 / RFU, NDUFAF7 / Fold change vs veh, NDUFAF7 / RFU, SLC12A2 / Fold change vs veh, SLC12A2 / RFU, IBTK / Fold change vs veh, IBTK / RFU, ESF1 / Fold change vs veh, ESF1 / Fold change vs veh, TMEM50B / RFU, TAOK1 / Fold change vs veh, TAOK1 / RFU, ACBD3 / Fold change vs veh, ACBD3 / RFU, TMA16 / Fold change vs veh, TMA16 / RFU, RWDD3 / Fold change vs veh, RWDD3 / RFU, BCAT1 / Fold change vs veh, BCAT1 / RFU, EDEM3 / Fold change vs veh, EDEM3 / RFU, TMEM33 / Fold change vs veh, TMEM33 / RFU, WDR75 / Fold change vs veh, WDR75 / RFU, AHCTF1 / Fold change vs veh, AHCTF1 / RFU, TFRC / Fold change vs veh, TFRC / RFU, ZDHHC17 / Fold change vs veh, ZDHHC17 / RFU, NOM1 / Fold change vs veh, NOM1 / RFU, ARL8B / Fold change vs veh, ARL8B / RFU, ZBTB11 / Fold change vs veh, ZBTB11 / RFU, TAMM41 / Fold change vs veh, TAMM41 / RFU, KIAA1704 /// LOC100996395 / Fold change vs veh, KIAA1704 /// LOC100996395 / RFU, ING1 / Fold change vs veh, ING1 / RFU, TRMT61B / Fold change vs veh, TRMT61B / RFU, FUBP3 / Fold change vs veh, FUBP3 / RFU, TP53 / Fold change vs veh, TP53 / RFU, TNKS2 / Fold change vs veh, TNKS2 / RFU, ZFP14 / Fold change vs veh, ZFP14 / RFU, ACTR2 / Fold change vs veh, ACTR2 / RFU, PPP3R1 / Fold change vs veh, PPP3R1 / RFU, PIK3R1 / Fold change vs veh, PIK3R1 / RFU, HNRNPA1 / Fold change vs veh, HNRNPA1 / RFU, RNF170 / Fold change vs veh, RNF170 / RFU, ZNF28 / Fold change vs veh, ZNF28 / RFU, RNGTT / Fold change vs veh, RNGTT / RFU, OGT / Fold change vs veh, OGT / RFU, BRD1 / Fold change vs veh, BRD1 / RFU, MARS / Fold change vs veh, MARS / RFU, ZNF655 / Fold change vs veh, ZNF655 / RFU, FAHD1 / Fold change vs veh, FAHD1 / RFU, BDP1 / Fold change vs veh, BDP1 / RFU, LRRCC1 / Fold change vs veh, LRRCC1 / RFU, ARID1A / Fold change vs veh, ARID1A / RFU, ZNF146 / Fold change vs veh, ZNF146 / RFU, ZNF330 / Fold change vs veh, ZNF330 / RFU, GPN3 / Fold change vs veh, GPN3 / RFU, C9orf123 / Fold change vs veh, C9orf123 / RFU, N4BP2L2 / Fold change vs veh, N4BP2L2 / RFU, ARFIP1 / Fold change vs veh, ARFIP1 / RFU, FAM179B / Fold change vs veh, FAM179B / RFU, BCL10 / Fold change vs veh, BCL10 / RFU, UHRF1BP1L / Fold change vs veh, UHRF1BP1L / RFU, BET1 / Fold change vs veh, BET1 / RFU, CNOT2 / Fold change vs veh, CNOT2 / RFU, ZNF268 / Fold change vs veh, ZNF268 / Fold change vs veh, ZNF507 / RFU, DGCR2 / Fold change vs veh, DGCR2 / RFU, WDSUB1 / Fold change vs veh, WDSUB1 / Fold change vs veh, HSP90B1 /// MIR3652 / RFU, ADSS / Fold change vs veh, ADSS / RFU, GK / Fold change vs veh, GK / RFU, ZNF148 / Fold change vs veh, ZNF148 / RFU, TAF9 / Fold change vs veh, TAF9 / RFU, SLC1A5 / Fold change vs veh, SLC1A5 / RFU, SLMO2 / Fold change vs veh, SLMO2 / RFU, ABCC4 / Fold change vs veh, ABCC4 / RFU, LOC101060439 /// RAP1B / Fold change vs veh, LOC101060439 /// RAP1B / RFU, RFX7 / Fold change vs veh, RFX7 / RFU, GTPBP10 / Fold change vs veh, GTPBP10 / RFU, CNEP1R1 / Fold change vs veh, CNEP1R1 / RFU, BIVM-ERCC5 /// ERCC5 / Fold change vs veh, BIVM-ERCC5 /// ERCC5 / RFU, ILF3 / Fold change vs veh, ILF3 / RFU 11762660_at / Fold change /veh 11762660_at / RFU VCAN (11757783_s_at) / Fold change /veh VCAN (11757783_s_at) / RFU DDX43 (11728927_at) / Fold change /veh DDX43 (11728927_at) / RFU KRT8 (11758188_x_at) / Fold change /veh KRT8 (11758188_x_at) / RFU NKD1 (11759106_at) / Fold change /veh NKD1 (11759106_at) / RFU SRD5A1 (11742802_a_at) / Fold change /veh SRD5A1 (11742802_a_at) / RFU TPSAB1 /// TPSB2 (11721975_s_at) / Fold change /veh TPSAB1 /// TPSB2 (11721975_s_at) / RFU GSTM3 (11746129_a_at) / Fold change /veh GSTM3 (11746129_a_at) / RFU IL23R (11737362_x_at) / Fold change /veh IL23R (11737362_x_at) / RFU TMEM51 (11727254_a_at) / Fold change /veh TMEM51 (11727254_a_at) / RFU PIWIL2 (11732686_x_at) / Fold change /veh PIWIL2 (11732686_x_at) / RFU ORM1 (11744905_x_at) / Fold change /veh ORM1 (11744905_x_at) / RFU CCDC152 (11743942_at) / Fold change /veh CCDC152 (11743942_at) / RFU ECM1 (11717891_a_at) / Fold change /veh ECM1 (11717891_a_at) / RFU IL23R (11748794_a_at) / Fold change /veh IL23R (11748794_a_at) / RFU TNFAIP8L3 (11732012_x_at) / Fold change /veh TNFAIP8L3 (11732012_x_at) / RFU MBOAT4 (11741988_at) / Fold change /veh MBOAT4 (11741988_at) / RFU 11764193_at / Fold change /veh 11764193_at / RFU TMEM53 (11763286_at) / Fold change /veh TMEM53 (11763286_at) / RFU MAGEB2 (11727129_at) / Fold change /veh MAGEB2 (11727129_at) / RFU TMEM200A (11744735_a_at) / Fold change /veh TMEM200A (11744735_a_at) / RFU CCDC152 (11751479_a_at) / Fold change /veh CCDC152 (11751479_a_at) / RFU FAM211A (11726209_a_at) / Fold change /veh FAM211A (11726209_a_at) / RFU RGS16 (11746705_a_at) / Fold change /veh RGS16 (11746705_a_at) / RFU VCAN (11755009_s_at) / Fold change /veh VCAN (11755009_s_at) / RFU RHOB (11743442_s_at) / Fold change /veh RHOB (11743442_s_at) / RFU RGS16 (11720943_a_at) / Fold change /veh RGS16 (11720943_a_at) / RFU RGS16 (11720944_at) / Fold change /veh RGS16 (11720944_at) / RFU, VPS4B / Fold change vs veh, VPS4B / RFU, CREB1 / Fold change vs veh, CREB1 / RFU, DNAJC13 / Fold change vs veh, DNAJC13 / RFU, GNAQ / Fold change vs veh, GNAQ / RFU, CDK5R1 / Fold change vs veh, CDK5R1 / RFU, ZRANB3 / Fold change vs veh, ZRANB3 / RFU, CUL4A / Fold change vs veh, CUL4A / RFU, CCNY / Fold change vs veh, CCNY / RFU, UFL1 / Fold change vs veh, UFL1 / RFU, COG3 / Fold change vs veh, COG3 / RFU, DIAPH2 / Fold change vs veh, DIAPH2 / RFU, SKA2 / Fold change vs veh, SKA2 / RFU, AFF3 / Fold change vs veh, AFF3 / RFU, LMF1 / Fold change vs veh, LMF1 / RFU, IPO11 / Fold change vs veh, IPO11 / RFU, DFFB / Fold change vs veh, DFFB / RFU, FOXP1 / Fold change vs veh, FOXP1 / RFU, CARD8 / Fold change vs veh, CARD8 / RFU, STRN3 / Fold change vs veh, STRN3 / RFU, ADK / Fold change vs veh, ADK / RFU, RASSF2 / Fold change vs veh, RASSF2 / RFU, WIPF1 / Fold change vs veh, WIPF1 / RFU, LARP1B / Fold change vs veh, LARP1B / RFU, RASA1 / Fold change vs veh, RASA1 / RFU, RB1 / Fold change vs veh, RB1 / RFU, PPFIA1 / Fold change vs veh, PPFIA1 / RFU, MAT2A / Fold change vs veh, MAT2A / RFU, CCT5 / Fold change vs veh, CCT5 / RFU, WDR92 / Fold change vs veh, WDR92 / RFU, CUX1 / Fold change vs veh, CUX1 / RFU, TTC7A / Fold change vs veh, TTC7A / RFU, TMEM135 / Fold change vs veh, TMEM135 / RFU, DEPTOR / Fold change vs veh, DEPTOR / RFU, CPM / Fold change vs veh, CPM / RFU, DNAJB6 / Fold change vs veh, DNAJB6 / RFU, CACNA2D3 / Fold change vs veh, CACNA2D3 / RFU, DTX4 / Fold change vs veh, DTX4 / RFU, TFCP2 / Fold change vs veh, TFCP2 / RFU, GMCL1 /// GMCL1P1 / Fold change vs veh, GMCL1 /// GMCL1P1 / RFU, AEBP2 / Fold change vs veh, AEBP2 / RFU, SNHG1 /// SNORD22 /// SNORD25 /// SNORD26 /// SNORD27 /// SNORD28 /// SNORD29 /// SNORD31 / Fold change vs veh, SNHG1 /// SNORD22 /// SNORD25 /// SNORD26 /// SNORD27 /// SNORD28 /// SNORD29 /// SNORD31 / Fold change (Aza/veh), C12orf56 (ProbeSet 11735607_a_at) / Fold change (ACY-1035/veh), C12orf56 (ProbeSet 11735607_a_at) / Fold change (Aza/veh), FGFR1OP (ProbeSet 11751329_s_at) / Fold change (ACY-1035/veh), FGFR1OP (ProbeSet 11751329_s_at) / Fold change (Aza/veh), VPS36 (ProbeSet 11739960_a_at) / Fold change (ACY-1035/veh), VPS36 (ProbeSet 11739960_a_at) / RFU SYPL1 (11715823_x_at) / Fold change /veh SYPL1 (11715823_x_at) / RFU IGFBP7 (11715501_s_at) / Fold change /veh IGFBP7 (11715501_s_at) / RFU REEP3 (11722064_at) / Fold change /veh REEP3 (11722064_at) / RFU IGLL1 (11728026_x_at) / Fold change /veh IGLL1 (11728026_x_at): dose or concentration left out as unconfirmed
# Conditions: ProbeSet 11732281_s_at; LIST D
smiles,measurement,value
Nc1ncn([C@@H]2O[C@H](CO)[C@@H](O)[C@H]2O)c(=O)n1 [azacitidine],"Fold change vs veh, FOXP1",0.63
